# Data: patent publication US20100062012A1, “Negative Genetic Regulation of Cancer Cell Renewal in Synergy with Notch- or Numb-Specific Immunotherapy” (priority 2007, published 2010)
# pIC50: −log10 of the molar value. Counter-ions that a name gives are not always drawn. Peptide text beside a SMILES is read from it. * marks the point of attachment. Cbz = O=C(OCc1ccccc1)*
# Key:
# [1] = system: MCF7; assay: Quantitative immunoblot of Notch and Numb proteins with or without GEM; type: cell-based, human
# Procedure: (§1) Western blot analysis. Cell lysates of live MIA-PaCa-2, MCF7, and SKOV-3 were prepared as we described (74) after trypsin treatment of cultures. This procedure eliminated dead and dying cells. Cellular proteins were resolved by SDS-PAGE and transferred to a polyvinylidene difluoride membrance. Immuno-blotting and quantification was performed as we described (74). […] Notch signals promote survival and proliferation of normal stem cells. Notch signals are mediated by truncated intracellular domain (NICD), which activate transcription in the nucleus. Numb antagonizes Notch signal by inducing degradation of Notch (60, 13). Mammalian Numb has four splicing isoforms, which are divided into two types (Numb^L and Numb^S) based on the presence or absence of a 49 amino acid insert (5 kDa) in the proline-rich region (PRR) in the C-terminus. It is unclear whether Numb^L or Numb^S is a significant antagonist of Notch. To characterize expression of Notch and Numb proteins we performed quantitative immunoblot analysis of proteins in the lysates of live MIA-PaCa-2 and MCF7 cultured with or without GEM. (FIG. 9).
# [2] = system: MIA-PaCa-2; assay: as above; type: cell-based, human
# Procedure: as §1
# [3] = system: MCF7; assay: Flow cytometry of CSt-C markers after culture with drugs; type: cell-based, human; settings: for cells harvested: after culture of 3×10^6 MCF-7 cells
# Procedure: (§2) Flow cytometery analysis. All cells were cultured with Gem at 2×IC50 of gemcitabine for 10 days. Cultured cells (2×10^5) were washed in cold-PBS followed by blocking with 20 μL of 1 mg/mL of human IgG (Sigma, Saint Louis, Mo.) for 1 hour on ice. This step was necessary to inhibit non-specific binding of immunoglobulins during staining. Cells were then triple-stained with antibodies against ESA, CD44, and CD24. Analysis was performed with Becton Dickinson FACSCalibur and Cell Quest software (Becton Dickinson). Cells were gated on ESA+ population. Expression of CD24 and CD44 was examined in gated ESA+ cells as we described (26). The population of the ESA+, CD44hi and CD24low/− cells was calculated as percent of total cells and total ESA+ cells. All cell lines were also stained with a MIC-A/B and CD133, and analyzed as above.
# [4] = system: AsPC-1; assay: as above; type: cell-based, human; settings: AsPC-1 after culture with drug
# Procedure: as §2
# [5] = system: MIA-PaCa-2; assay: as above; type: cell-based, human; settings: for % CD44hi CD24- in ESA+ cells / % CD44hi CD24hi in ESA+ cells / % CD44hi CD24low in ESA+ cells / % CSt-like-C / % ESA+: MIA-PaCa-2 after culture with drug
# Procedure: as §2
# [6] = system: PANC-1; assay: as above; type: cell-based, human
# Procedure: as §2
# [7] = system: SKOV-3; assay: as above; type: cell-based, human
# Procedure: as §2
# [8] = system: MCF7; assay: MTT inhibition of proliferation; type: cell-based; settings: Homo sapiens, 72 h
# From the text: (§3) Inhibition of proliferation of tumor cell lines by anticancer drugs.
# [9] = system: MIA-PaCa-2; assay: MTT inhibition of proliferation; type: cell-based; settings: Homo sapiens; MIA-PaCa-2, MTT, 72 h
# From the text: as §3
# [10] = system: PANC-1; assay: MTT inhibition of proliferation; type: cell-based; settings: Homo sapiens; PANC-1, MTT, 72 h
# From the text: as §3
# [11] = system: AsPC-1; assay: MTT inhibition of proliferation; type: cell-based, human; settings: for pIC50: AsPC-1, MTT, 72 h
# From the text: as §3
# [12] = system: SKOV-3; assay: MTT inhibition of proliferation; type: cell-based, human; settings: SKOV-3, MTT
# From the text: as §3
# [13] = system: MIA-PaCa-2; assay: Flow cytometry of CSt-C markers after culture with drugs; type: cell-based, human; settings: starting from 3.0×10^6 Mia-PaCa-2 cells
# [14] = system: MIA-PaCa-2; assay: Flow cytometry of NKG2D ligands MIC-A/B in drug-resistant cells; type: cell-based, human; settings: MIA PaCa-2, FIG. 7A
# Procedure: as §2
# To address the hypothesis that drug-resistant cancer cells are more sensitive to cellular immune effectors, we quantified expression of NKG2D ligands, MIC-A and -B (58, 59). ESA^+ MIA-PaCa-2 cells were analyzed for MIC-A/B. MCF7 cells were analyzed with CD44, CD24 and MIC-A/B (FIG. 7B), because almost all MCF7 cells (95% and more) expressed ESA.
# [15] = system: MCF7 cells; assay: Stimulation of MCF7 / GEMRes MCF7 by DLL4; type: cell-based, human
# Procedure: Stimulation of GEMRes MCF7 by DLL4. GEMRes MCF7 were obtained after culture with 0.3 uM GEM for 7 weeks. MCF7 were stimulated for 24 hrs, in medium containing estradiol, fibroblast growth factor in the presence or absence of DLL4, as described (40).
# [16] = system: breast tumors; settings: reference 14; cited from earlier work
# [17] = system: Ovarian and PC; assay: CD44+ CD24lo cells after taxol; type: cell-based; settings: Ovarian and PC treated
# [18] = system: SKOV3.A2 cells; assay: IFN-g production by Numb-1 peptide activated PBMC on SKOV3.A2 cells; type: cell-based, human; settings: presentation of Numb-1(87-95) peptide; 24 h and 48 h
# Procedure: FIG. 11. (A). SKOV3.A2 cells present the Numb-1 (87-95) peptide to Numb-1 peptide activated PBMC. Substantially higher, by 2-fold IFN-g production by Numb-1-peptide activated PBMC than by Notch peptides activated PBMC. Note that at 48 h the amount of IFN g produced by the two Notch peptide activated cell lines and the non-specifically, IL-2-activated cell lines was low and similar. Only Notch peptide, 2112-2120, can be presented by HL-A2 after Notch digestion by proteasome. (the program paproc.de). (B). Western analysis of Notch and Numb protein expression in SKOV3. […] A part of Numb is phosphorylated. A small part of Numb was phosphorylated at the Ser^283. A large part of Numb was phosphorylated at the Ser^264. […] The closed symbols indicate are 24 h measurements, the open symbols indicate 48 h measurements.
smiles,measurement,setting,value
"Nc1ccn([C@@H]2O[C@H](CO)[C@@H](O)C2(F)F)c(=O)n1 [GEM, gemcitabine hydrochloride]","NECD expression increase, GEMRes vs GEMSens",[1],73%
same,"NICD level decrease, GEMRes vs GEMSens",[1],39%
same,"NumbL expression decrease, GEMRes vs GEMSens",[1],29%
same,"NumbS decrease, GEMRes vs GEMSens",[1],18%
same,"NECD expression increase, GEMRes vs GEMSens",[2],18%
same,"NICD level increase, GEMRes vs GEMSens",[2],35%
same,"NumbL expression increase, GEMRes vs GEMSens",[2],50%
same,"NumbS decrease, GEMRes vs GEMSens",[2],18%
same,change of CSt-like-C population,[3]; MCF7,increased
same,increase of ESA+ CD44hi CD24low and CD133+ populations in GEMRes population vs entire population,[3]; MCF7,3-5 fold
same,% CD44hi CD24- in ESA+ cells,[3]; MCF7 after culture with drug,0.3%
same,% CD44hi CD24hi in ESA+ cells,[3]; MCF7 after culture with drug,10.2%
same,% CD44hi CD24low in ESA+ cells,[3]; MCF7 after culture with drug,6.3%
same,% CSt-like-C,[3]; MCF7 after culture with drug,6.3%
same,% ESA+,[3]; MCF7 after culture with drug,95.4%
same,cells harvested,[3],0.6 ×10^6
same,% CD44hi CD24- in ESA+ cells,[4],19.3%
same,% CD44hi CD24hi in ESA+ cells,[4],20.1%
same,% CD44hi CD24low in ESA+ cells,[4],58.2%
same,% CSt-like-C,[4],57.6%
same,% ESA+,[4],98.9%
same,change of CSt-C (CSt-like-C) population,[5]; MIA-PaCa-2,increased
same,% CD44hi CD24- in ESA+ cells,[5],1.1%
same,% CD44hi CD24hi in ESA+ cells,[5],12.2%
same,% CD44hi CD24low in ESA+ cells,[5],43.2%
same,% CSt-like-C,[5],17.0%
same,% ESA+,[5],39.5%
same,increase of ESA+ CD44hi CD24low and CD133+ populations in GEMRes population vs entire population,[5]; Mia-PaCa-2,3-5 fold
same,increase of ESA+ CD44hi CD24low and CD133+ populations in GEMRes population vs entire population,[6]; PANC-1,3-5 fold
same,% CD44hi CD24- in ESA+ cells,[6]; PANC-1 after culture with drug,8.6%
same,% CD44hi CD24hi in ESA+ cells,[6]; PANC-1 after culture with drug,9.7%
same,% CD44hi CD24low in ESA+ cells,[6]; PANC-1 after culture with drug,50.0%
same,% CSt-like-C,[6]; PANC-1 after culture with drug,38.3%
same,% ESA+,[6]; PANC-1 after culture with drug,76.7%
same,increase of ESA+ CD44hi CD24low and CD133+ populations in GEMRes population vs entire population,[7]; SKOV3,3-5 fold
same,% CD44hi CD24- in ESA+ cells,[7]; SKOV-3 after culture with drug,0.1%
same,% CD44hi CD24hi in ESA+ cells,[7]; SKOV-3 after culture with drug,46.0%
same,% CD44hi CD24low in ESA+ cells,[7]; SKOV-3 after culture with drug,51.5%
same,% CSt-like-C,[7]; SKOV-3 after culture with drug,50.2%
same,% ESA+,[7]; SKOV-3 after culture with drug,97.5%
same,pIC50,[8],6.37
same,pIC50,[9],6.52
same,pIC50,[10],6.46
same,pIC50,[11]; hydrochloride,7.70
same,pIC50,"[11]; Homo sapiens, ASPC1, 72 h",> 7.70
same,pIC50,"[12]; Homo sapiens, SK-OV-3, 72 h",> 7.70
same,pIC50,"[12]; 72 h, hydrochloride",7.80
same,cells harvested,[13],1.3 ×10^6 cells
same,number of cells expressing MICA and MICB in drug-resistant cells,[14],increased
same,GEMRes MCF7 cells in G1 (resting) phase,[15],> 90%
same,CD44hi CD24hi (% of cells),[15]; MCF7,19.7%
same,CD44hi CD24hi (cell number),[15]; MCF7,0.26
same,CD44hi CD24low (% of cells),[15]; MCF7,(7.1%)
same,CD44hi CD24low (cell number),[15]; MCF7,0.09 × 10^6
same,ratio CD44hi CD24hi to CD44hi CD24low,[15]; MCF7,2
same,Stimulation Index,"[15]; MCF7, harvested/seeded",0.44
same,Harvested cells,"[15]; MCF7, seeded 3.0 x 10^6",1.32 10^6
CC(C)C[C@@H](C=O)NC(=O)[C@H](CC(C)C)NC(=O)[C@H](CC(C)C)NC(=O)OCc1ccccc1 [MG132] (Cbz-Leu-Leu-Leu-aldehyde),low Numb levels after treatment,[16],restored to high levels
"CC(=O)O[C@H]1C(=O)[C@@]2(C)[C@H]([C@H](OC(=O)c3ccccc3)[C@]3(O)C[C@H](OC(=O)[C@H](O)[C@@H](NC(=O)c4ccccc4)c4ccccc4)C(C)=C1C3(C)C)[C@]1(OC(C)=O)CO[C@@H]1C[C@@H]2O [PTX, paclitaxel]",change of CSt-like-C population,[3]; MCF7,increased
same,cells harvested,[3],0.4 ×10^6
same,% CD44hi CD24- in ESA+ cells,[5],1.0%
same,% CD44hi CD24hi in ESA+ cells,[5],21.2%
same,% CD44hi CD24low in ESA+ cells,[5],23.1%
same,% CSt-like-C,[5],7.7%
same,% ESA+,[5],33.2%
same,pIC50,[8],8.35
same,pIC50,[9],8.28
same,pIC50,[10],8.41
same,pIC50,"[11]; Homo sapiens, ASPC1, 72 h",7.74
same,IC50 in AsPC-1 relative to PANC-1,[11]; most resistant vs most sensitive line,more than 4 fold
same,pIC50,"[12]; Homo sapiens, SK-OV-3, 72 h",8.33
same,cells harvested,[13],3.3 ×10^6 cells
same,number of cells expressing MICA and MICB in drug-resistant cells,[14],did not increase
same,number of CD44+ CD24lo cells,[17],increased
C[S+]([O-])c1ccc(-c2nc(-c3ccc(F)cc3)c(-c3ccncc3)[nH]2)cc1 (stereo not shown) [SB20380],effect of treatment of SKOV3.A2 cells on IFN-g production by the indicator cell line,[18],weaker inhibitory effect
CN[C@@H]1C[C@H]2O[C@@](C)([C@@H]1OC)n1c3ccccc3c3c4c(c5c6ccccc6n2c5c31)C(=O)NC4 [staurosporine],effect of treatment of SKOV3.A2 cells on IFN-g production by the indicator cell line,[18],abolished
